Experimental data published in paper PMC9144936, “New Cu^+2 Complexes with N-Sulfonamide Ligands: Potential Antitumor, Antibacterial, and Antioxidant Agents” (Molecules, 2022).

Tests used:
[1] = SOD mimetic activity, xanthine/xanthine oxidase system, NBT reduction; format: biochemical; settings: pH 7.8, read-out: SOD-like activity IC50 (50% inhibition of NBT reduction)
Experimental: The SOD-like activities of complexes C1 and C2 were determined by an indirect method using the xanthine/xanthine oxidase system as the source of superoxide radicals. […] The IC50 value for native Cu2Zn2SOD is 0.006 μΜ. Thus, the IC50 values for both complexes are higher than the IC50 value for native Cu2Zn2SOD but are similar to those of complexes with related sulfonamide ligands presented in the literature.
The in vitro SOD mimetic activities of the complexes were assayed using the Oberley and Spitz method with some minor modifications. To generate a reproductible and constant flux of superoxide anions, xanthine (1.5 × 10^−4 M) and xanthine oxidase in 50 mM potassium phosphate buffer, pH = 7.8, were used. The superoxide anions were detected by the reduction of nitro blue tetrazolium (NBT) (5.6 × 10^−5 M) to blue formazane, which was determined spectrophotometrically at 560 nm. Different concentrations of the complexes (50, 25, 12.5, 2, and 0.2 μM) were prepared in 50 mM Tris-HCl buffer, pH = 7.8. For each determination, 0.1 mL complex solution + 0.1 mL xanthine oxidase were added to 0.8 mL of solution containing 0.69 mL potassium phosphate buffer (pH = 7.8), 0.025 mL NBT, and […]. The inhibition percentage of NBT reduction was used to determine the SOD activities of the complexes. The conversion of xanthine to uric acid was measured at 310 nm. The % inhibition of enzyme activity was subtracted from that of NBT. The IC50 values (the concentration of complex needed to yield 50% inhibition of NBT reduction) were determined from plots of % inhibition versus complex concentration. A Specord 200 Plus Spectrophotometer was used to perform the determinations and all reagents were purchased from Sigma-Aldrich.

[2] = tested on: supercoiled pUC18 DNA; assay: DNA cleavage (nuclease activity), agarose gel electrophoresis with H2O2/ascorbic acid; format: biochemical; settings: 37 °C; for effect of sodium azide on the ability to destroy the nucleic acid molecule: complex 10 μM, ascorbic acid/H2O2, 1 h, NaN3 400 mM; for concentration at which the circular shape of DNA appears / concentration at which the linear shape of DNA appears: pUC18, cacodylate buffer 0.1 M pH 6.0, H2O2/ascorbic acid, 1 h
Source text: The activity of the complexes as chemical nucleases was studied using supercoiled pUC18 DNA in cacodylate buffer (0.1M, pH 6.0) in the presence of H2O2/ascorbic acid, with a 3.0-fold excess relative to the complex concentration. The efficiency of the complexes was compared with that of both copper sulfate and bis(o-phenanthroline) Cu^+2 complex under the same reaction conditions.
The nuclease activity of the complexes C1 and C2 was studied in the presence of certain inhibiting agents: DMSO, t-butyl alcohol, distamycin, sodium azide, 2,2,6,6-tetramethyl-4-piperidone, superoxide dismutase, and neocuproine, in an attempt to determine the ROS involved in the degradation process of the DNA molecule. We chose a concentration of 10 μM for the complexes and a concentration […] for the reducing agents ascorbic acid/H2O2. The incubation period of the samples was 1 h, at 37 °C. The resulting electropherograms are presented in Figure S8 in the Supplementary Material.
Reactions were performed by mixing 7 μL of cacodylate buffer 0.1 M, pH 6 (cacodylic acid/sodium cacodylate), 6 μL of complex solution (final concentrations: 5, 10, 15, and 20 μM), 1 μL of pUC18 DNA solution (0.25 μg/μL, 750 μM in base pairs), and 6 μL of activating agent solution (H2O2/ascorbic acid) in a 3-fold molar excess relative to the concentration of the complex. The resulting solutions were incubated for 1 h at 37 °C, after which a quench buffer solution (3 μL) consisting of bromophenol blue (0.25%), xylene cyanol (0.25%), and glycerol (30%) was added. The solution was then subjected to electrophoresis on 0.8% agarose gel in 0.5 × TBE buffer (0.045 M Tris, 0.045 M boric acid, and 1 mM EDTA) containing 5 μL/100 mL of a solution of ethidium bromide (10 mg/mL) at 100 V for 2 h. The bands were photographed on a capturing system (Gelprinter Plus TDI).
To test for the presence of reactive oxygen species (ROS) generated during strand scission and for possible complex–DNA interaction sites, various reactive oxygen intermediate scavengers and groove binders were added to the reaction mixtures. The scavengers used were 2,2,6,6-tetramethyl-4-piperidone (0.5 M), dimethylsulfoxide (DMSO) 14 M, t-butyl alcohol (10.5 M), sodium azide (NaN3) (400 mM), and superoxide dismutase (SOD) (15 units). In addition, a chelating agent of copper(I) and neocuproine (36 μM), along with the groove binder distamycin (80 μM) were also assayed. Samples were treated as described above.

[3] = tested on: Staphylococcus aureus ATCC 6538P; assay: Disk diffusion method, S. aureus; format: cell-based; settings: complexes 5 µL of 1 mg/mL; 25 µg Amoxicillin, 5 µg Norfloxacin; 24 h, 37 °C
Source text: The disk diffusion method was used to determine the antibacterial activity of the C1 and C2 copper complexes on four reference microbial strains, two Gram-positive (Staphylococcus aureus and Bacillus cerreus) and two Gram-negative (Escherichia coli and Pseudomonas aeruginosa) strains. The disk diffusion method was used to determine the antibacterial activity of the C1 and C2 copper complexes. The method was adapted for the purposes of the current study, according to the standards developed by the Clinical and Laboratory Standards Institute. Four reference microbial strains, two Gram-positive (Staphylococcus aureus ATCC […] and Bacillus cerreus ATCC 14579) and two Gram-negative (Escherichia coli ATCC 10536 and Pseudomonas aeruginosa ATCC 27853) strains, were used for in vitro susceptibility testing. These reference microbial strains were obtained from the American Type Culture Collection (ATCC, Manassas, VA, USA). As positive controls, Amoxicillin (Oxoid Ltd., Basingstoke, UK) and Norfloxacin (Sigma-Aldrich) were used. For each of the four species, an initial suspension of bacterial cultures was inoculated on nutrient agar plates (Merck KGaA, Darmstadt, Germany), incubated for 24 h at 37 ± 2 °C and resuspended in a physiological saline buffer to a […] concentration (on a 0.5 McFarland scale), and further inoculated on Muëller Hinton agar plates (Merck KGaA, Darmstadt, Germany). […] After inoculation, the medium surface was dried and 8 wells were radially drilled 1.5 cm from the outer edge, 3 cm apart. From aliquot samples of 1 mg/mL of each copper complex dissolved in DMSO and incorporated in sterile liquid medium, 5 μL was placed in each of the 8 wells and left for 30 min to diffuse into the agar plates. The plates were then incubated for 24 h at 37 ± 2 °C. Then, 25 μg Amoxicillin and 5 μg Norfloxacin served as a positive controls, while DMSO 0.75% was used as a negative control. Readings were conducted by measuring the diameter of the inhibition zone (Halo Zone Test, in mm). The germ sensitivity of the copper complexes was estimated by comparing the diameter of the inhibition area to that generated by the regular antibiotics with known inhibition values. […] All tests were triplicated, and the measured diameters of the inhibition zone were expressed (in mm) as mean ± standard deviation.

[Cu(N-(5-(4-Methylphenyl)-[1,3,4]-Thiadiazole-2-yl) Naphtalenesulfonamidate)2(H2O)3] [C1]
IC50 [1]: 283 nM
effect of sodium azide on the ability to destroy the nucleic acid molecule [2]: little effect
concentration at which the circular shape of DNA appears [2]: 15 µM
concentration at which the linear shape of DNA appears [2]: 20 µM
Halo Zone Test (diameter of the inhibition zone) [3]: 13 ± 0.17 mm

[Cu(N-(5-Ethyl--[1,3,4]-Thiadiazole-2-yl) Naphtalenesulfonamidate)2(py)2(H2O)] [C2]
IC50 [1]: 174 nM
effect of sodium azide on the ability to destroy the nucleic acid molecule [2]: little effect
concentration at which the circular shape of DNA appears [2]: 10 µM
concentration at which the linear shape of DNA appears [2]: 15 µM
Halo Zone Test (diameter of the inhibition zone) [3]: 15 ± 0.44 mm
